Results on eight molecules are retold here after PubChem BioAssay (NCI).

Some test systems named below: KM12 colon; TK-10 renal; U251 CNS; SK-MEL-2 melanoma; NCI-H23 lung; OVCAR-5 ovarian; K-562 leukemia; SW-620 colon; MOLT-4 leukemia; HL-60(TB) leukemia.
What all share (test): growth of human tumour cells (NCI), 48 h

Structures are written as SMILES.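 Exposure lasted 48 hours, with cells grown in 96-well plates and compounds tested at five concentrations. GI50: concentration for 50% inhibition of growth. TGI: concentration producing complete growth inhibition.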 *1 amine or outer side, *2 acyl side, *3 side chain or, on linkers, in order; H or OH if unused. Where a SMILES comes first, the peptide text is derived from it. Bridges are numbered along the chain shown (N, C = ends). [ ]: non-standard residue; d: D form. The star is where a group is joined. Phe(3-Me) = Cc1cccc(C[C@H](N)C(=O)O)c1; NH(4-Cl-2-F-phenyl) = Fc1cc(Cl)ccc1N*; Pro(4R-Me) = C[C@H]1CN[C@H](C(=O)O)C1; Hyp = O=C(O)[C@@H]1C[C@@H](O)CN1; aThr = C[C@H](O)[C@H](N)C(=O)O; Pip = O=C(O)[C@@H]1CCCCN1; CO = O=C([*:1])[*:2]

In the case of `NC(=NC1CCCCCC1)c1ccc(N2CCN(c3ccc(C(N)=NC4CCCCCC4)cc3)CC2)cc1`, the GI50 was 8.35 µM in the test on KM12 colon; 14.6 µM in the test with TK-10 renal; 3.02 µM in the test with U251 CNS; 7.65 µM with SK-MEL-2 melanoma; 4.77 µM in the test with NCI-H23 lung; 25.4 µM in the test with OVCAR-5 ovarian. Moreover, the GI50 with K-562 leukemia was 4.57 µM; in the test on SW-620 colon, 10.8 µM; in the test on MOLT-4 leukemia it was 23.9 µM; in the test on HL-60(TB) leukemia, 14.1 µM. In addition, the TGI in the test with KM12 colon is 30.2 µM; in the test with TK-10 renal, more than 50 µM; with U251 CNS it was 11.3 µM; in the test with SK-MEL-2 melanoma, 18.1 µM; in the test on NCI-H23 lung it was 18.5 µM; in the test on OVCAR-5 ovarian, more than 50 µM. The TGI in the test with K-562 leukemia, with SW-620 colon, in the test on MOLT-4 leukemia and with HL-60(TB) leukemia was more than 50 µM throughout.

As to `NC(=O)C1=C(c2ccccc2)c2ccccc2C1=O`, the TGI was 30.9 µM in the test on KM12 colon; 32.4 µM in the test on TK-10 renal; 35.1 µM in the test with U251 CNS; 39.7 µM in the test with SK-MEL-2 melanoma; 33.7 µM in the test on NCI-H23 lung; 53.9 µM in the test on OVCAR-5 ovarian. Further, the TGI in the test on K-562 leukemia is more than 100 µM; with SW-620 colon it was 66.6 µM; in the test on MOLT-4 leukemia it was 14.9 µM; in the test with HL-60(TB) leukemia, 18.1 µM.

As for `Cc1cccc(C[C@H](NC(=O)Nc2ccc(Cl)cc2F)C(=O)N[C@@H]2C(=O)N3C[C@H](O)C[C@H]3C(=O)N3CCCC[C@H]3C(=O)N[C@@H](C)C(=O)N3C[C@H](C)C[C@H]3C(=O)O[C@H]2C)c1` ({NH(4-Cl-2-F-phenyl)-CO}-[Phe(3-Me)][aThr][Hyp][Pip]A[Pro(4R-Me)]; ester 2-C), the GI50 in the test with KM12 colon is 0.788 µM; in the test with TK-10 renal, 1.78 µM; with U251 CNS it was 0.44 µM; with SK-MEL-2 melanoma it was 0.635 µM; in the test on NCI-H23 lung it was 0.551 µM; in the test on OVCAR-5 ovarian, 0.554 µM. Besides, the GI50 in the test on K-562 leukemia was 0.221 µM; with SW-620 colon, 0.595 µM; in the test with MOLT-4 leukemia it was 0.876 µM; in the test with HL-60(TB) leukemia it was 0.322 µM. Moreover, the TGI with KM12 colon was 2.49 µM; in the test with TK-10 renal, 10.1 µM; in the test on U251 CNS, 7.77 µM; in the test on SK-MEL-2 melanoma, 2.37 µM; in the test with NCI-H23 lung it was 3.72 µM; with OVCAR-5 ovarian, 2.36 µM. In addition, the TGI is more than 33.7 µM in the test on K-562 leukemia, 10.9 µM in the test on SW-620 colon, 6.28 µM in the test with MOLT-4 leukemia and 1.79 µM in the test on HL-60(TB) leukemia.

Regarding `CN(C)c1ccc(/C=C2\N=C(c3ccc(N)cc3)OC2=O)cc1`, the TGI in the test on KM12 colon, in the test on TK-10 renal, in the test on U251 CNS, in the test with SK-MEL-2 melanoma, in the test with NCI-H23 lung and in the test on OVCAR-5 ovarian was more than 100 µM in each case. In addition, the TGI in the test on K-562 leukemia, in the test on SW-620 colon, in the test on MOLT-4 leukemia and in the test on HL-60(TB) leukemia was more than 100 µM each time.

`O=C(Nc1ccncc1)C(=O)c1cn(S(=O)(=O)c2ccccc2F)c2ccccc12`: the GI50 is 0.837 µM in the test on KM12 colon; 9.71 µM in the test with TK-10 renal; 1.89 µM with U251 CNS; 5.2 µM in the test with SK-MEL-2 melanoma; 0.965 µM in the test on NCI-H23 lung; 5.38 µM in the test with OVCAR-5 ovarian. In addition, the GI50 with K-562 leukemia is 1.37 µM; with SW-620 colon it was 1.44 µM; in the test on MOLT-4 leukemia, 3.45 µM; in the test with HL-60(TB) leukemia it was 0.576 µM. The TGI was more than 100 µM in the test on KM12 colon; more than 49.3 µM in the test on TK-10 renal; 34.3 µM in the test on U251 CNS; more than 57.8 µM in the test on SK-MEL-2 melanoma; more than 34.8 µM with NCI-H23 lung; 98.2 µM in the test on OVCAR-5 ovarian. The TGI in the test on K-562 leukemia was more than 100 µM; in the test with SW-620 colon, more than 100 µM; in the test on MOLT-4 leukemia, more than 45.7 µM.

Turning to `C=C(CN1CCN(c2ccccc2F)CC1)c1ccc(C(=O)Nc2ccccc2N)cc1`, the GI50 with KM12 colon was 1.53 µM; in the test on TK-10 renal it was 1.7 µM; with U251 CNS, 1.4 µM; with SK-MEL-2 melanoma, 8.5 µM; in the test on NCI-H23 lung, 1.87 µM; in the test on OVCAR-5 ovarian, 1.29 µM. For the same molecule, the GI50 in the test with K-562 leukemia was 0.986 µM; in the test on SW-620 colon it was 1.97 µM; in the test with MOLT-4 leukemia it was 0.549 µM; with HL-60(TB) leukemia it was 0.353 µM. For the same molecule, the TGI is 11.4 µM in the test with KM12 colon; 59.8 µM in the test with TK-10 renal; 14.7 µM with U251 CNS; more than 100 µM in the test with SK-MEL-2 melanoma; 8.88 µM in the test on NCI-H23 lung; more than 100 µM with OVCAR-5 ovarian. For the same molecule, the TGI in the test on K-562 leukemia is more than 100 µM; in the test with SW-620 colon, more than 100 µM; with MOLT-4 leukemia, 4.86 µM; in the test on HL-60(TB) leukemia it was 2.87 µM.

With `Cc1c(Cl)cccc1NC(=O)c1sc2nc3c(cc2c1N)CCCCCC3`, the GI50 in the test with KM12 colon was 0.197 µM; with TK-10 renal, 10.7 µM; in the test on U251 CNS, 0.223 µM; with SK-MEL-2 melanoma, 0.196 µM; in the test with NCI-H23 lung it was 0.273 µM; in the test with OVCAR-5 ovarian, 0.791 µM. Moreover, the GI50 is 0.113 µM with K-562 leukemia, 0.175 µM in the test with SW-620 colon, 0.265 µM in the test on MOLT-4 leukemia and 0.158 µM with HL-60(TB) leukemia. Also, the TGI with KM12 colon was more than 50 µM; with TK-10 renal, 47.4 µM; in the test on U251 CNS it was 14.3 µM; with SK-MEL-2 melanoma it was 24.2 µM; with NCI-H23 lung it was more than 50 µM; with OVCAR-5 ovarian, more than 50 µM. Also, the TGI in the test with K-562 leukemia is more than 50 µM; with SW-620 colon it was more than 50 µM; in the test on MOLT-4 leukemia, more than 50 µM; in the test on HL-60(TB) leukemia, 3.4 µM.

As to `CN(/N=N/c1nc(OCc2ccccc2)c2[nH]cnc2n1)C(=O)N(C)/N=N/c1nc(OCc2ccccc2)c2[nH]cnc2n1`, the GI50 in the test with KM12 colon was 84.2 µM; in the test with TK-10 renal, 27.2 µM; in the test on U251 CNS, 49.9 µM; in the test with SK-MEL-2 melanoma it was 65.3 µM; in the test with NCI-H23 lung, 34.7 µM; in the test on OVCAR-5 ovarian it was 63.7 µM. In addition, the GI50 in the test with K-562 leukemia was 75.8 µM; in the test on SW-620 colon, 71.7 µM; in the test with MOLT-4 leukemia it was 53.1 µM; in the test on HL-60(TB) leukemia, 63.7 µM. Also, the TGI in the test on KM12 colon, in the test on TK-10 renal, in the test on U251 CNS, in the test on SK-MEL-2 melanoma, in the test with NCI-H23 lung and in the test on OVCAR-5 ovarian was more than 100 µM in each case. Besides, the TGI in the test on K-562 leukemia, in the test on SW-620 colon, in the test on MOLT-4 leukemia and in the test with HL-60(TB) leukemia was more than 100 µM each time.
